Measurements from ChEMBL document CHEMBL1201862, “PubChem BioAssay data set” (2004).
Activity calls are given as the source filed them.

Legend:
[1] = molecular target: T1, Serine/threonine-protein phosphatase (Candida dubliniensis (strain CD36 / CBS 7987 / NCPF 3949 / NRRLY-17841) (Yeast), UniProt B9W6M3); experiment: calcineurin pathway inhibitors in yeast reporter, dose response, S. cerevisiae, CDRE-lacZ, luminescence, secondary (AID 2388); format: functional, cell-based;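 also: yeast reporter cells carrying a calcineurin-responsive lacZ construct stimulated with calcium chloride; luminescent beta-galactosidase reporter signal in whole cells rather than isolated phosphatase activity; potency for inhibition where a drop in reporter signal means calcineurin blockade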
T1 sequence (B9W6M3 whole entry): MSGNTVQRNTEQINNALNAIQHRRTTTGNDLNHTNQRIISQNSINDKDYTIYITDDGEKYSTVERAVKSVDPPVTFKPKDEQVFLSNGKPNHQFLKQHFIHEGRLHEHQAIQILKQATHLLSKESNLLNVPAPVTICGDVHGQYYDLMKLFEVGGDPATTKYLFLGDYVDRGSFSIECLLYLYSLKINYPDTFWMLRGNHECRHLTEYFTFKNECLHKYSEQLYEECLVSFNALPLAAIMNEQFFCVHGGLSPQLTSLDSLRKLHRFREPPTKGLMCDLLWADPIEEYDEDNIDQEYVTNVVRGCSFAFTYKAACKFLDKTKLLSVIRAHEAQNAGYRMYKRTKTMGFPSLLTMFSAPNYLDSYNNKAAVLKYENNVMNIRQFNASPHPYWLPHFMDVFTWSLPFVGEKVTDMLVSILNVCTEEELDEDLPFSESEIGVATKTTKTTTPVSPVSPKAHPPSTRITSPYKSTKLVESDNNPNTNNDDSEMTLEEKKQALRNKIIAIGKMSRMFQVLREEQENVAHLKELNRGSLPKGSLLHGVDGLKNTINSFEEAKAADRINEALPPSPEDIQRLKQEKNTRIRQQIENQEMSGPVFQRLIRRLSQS

[2] = NIH-3T3 fibroblast cytotoxicity, dose response, cytotoxicity control, cell-based, fluorescence, Alamar Blue, secondary assay (AID 2327); format: functional;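 also: NIH-3T3 mouse fibroblasts cultured with fluconazole at 8 µg/mL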
[3] = C. albicans growth with fluconazole, confirmation, fluorescence, retest (AID 2467); format: functional, cell-based
[4] = molecular target: ATP-dependent molecular chaperone HSP82 (Candida albicans (strain WO-1) (Yeast), UniProt C4YTQ8); experiment: loss of DOC-induced GRE-beta-galactosidase reporter signal, dose response, Hsp90 inhibitor project, S. cerevisiae, luminescence (AID 2400); format: functional, cell-based;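 also: beta-galactosidase luminescence from glucocorticoid response element reporter as proxy for Hsp90 function; inhibitor potency where signal loss means Hsp90 inhibition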
ATP-dependent molecular chaperone HSP82, sequence (C4YTQ8 whole entry): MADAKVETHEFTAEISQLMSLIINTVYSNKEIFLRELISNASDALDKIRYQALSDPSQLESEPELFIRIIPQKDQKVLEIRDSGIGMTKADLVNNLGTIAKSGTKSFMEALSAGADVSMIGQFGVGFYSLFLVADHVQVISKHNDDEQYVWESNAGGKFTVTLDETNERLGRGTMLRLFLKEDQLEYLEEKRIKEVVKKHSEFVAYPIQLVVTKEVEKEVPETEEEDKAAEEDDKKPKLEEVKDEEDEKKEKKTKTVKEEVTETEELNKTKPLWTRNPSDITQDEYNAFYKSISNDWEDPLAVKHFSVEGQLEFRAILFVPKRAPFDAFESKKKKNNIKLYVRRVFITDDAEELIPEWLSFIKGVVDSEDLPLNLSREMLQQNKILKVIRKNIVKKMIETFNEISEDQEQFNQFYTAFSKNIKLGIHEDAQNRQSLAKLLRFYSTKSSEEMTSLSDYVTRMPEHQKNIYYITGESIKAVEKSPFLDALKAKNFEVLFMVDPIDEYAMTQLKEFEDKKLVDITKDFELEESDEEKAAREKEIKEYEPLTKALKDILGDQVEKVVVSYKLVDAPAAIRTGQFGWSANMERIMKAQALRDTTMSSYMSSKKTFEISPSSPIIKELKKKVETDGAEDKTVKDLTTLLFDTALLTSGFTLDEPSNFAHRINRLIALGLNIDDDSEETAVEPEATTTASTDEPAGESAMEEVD

[5] = HEp-2 cell cytotoxicity, dose response, cytotoxicity control for RSV inhibitor project, HTS (AID 2410); format: functional; settings: human respiratory syncytial virus
Vero [6] = experiment: cells; format: functional, cell-based; settings: Chlorocebus sabaeus
[7] = inhibitors of firefly luciferase expression or activity, dose response, H4 neuroglioma cells, luminescence (AID 1990); format: functional, cell-based
Vero [8] = experiment: cells; format: functional; settings: Chlorocebus sabaeus
[9] = molecular target: T2, Ubiquitin-conjugating enzyme E2 N (Homo sapiens, UniProt P61088); format: functional;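 also: Dose-response confirmation in a TR-FRET assay detecting UBC13-driven polyubiquitin chain formation, inhibition measured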
T2 sequence (P61088 whole entry): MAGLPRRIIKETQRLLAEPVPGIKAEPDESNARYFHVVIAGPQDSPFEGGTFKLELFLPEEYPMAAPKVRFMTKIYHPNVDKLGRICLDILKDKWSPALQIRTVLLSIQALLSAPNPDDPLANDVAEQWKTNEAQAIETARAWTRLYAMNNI

[10] = inhibitors of SNCA 5'UTR-driven reporter translation, confirmation, H4 neuroglioma cells, luminescence (AID 1988); format: functional, cell-based
[11] = Luminescence Cell-Based Dose Response HTS to Identify Inhibitors of 5'UTR Stem-Loop Driven Prion Protein mRNA Translation in H4 Neuroglioblastoma Cells. [Related pubchem assays: 1827 (Project Summary), 1813 (Primary HTS)]; format: functional
[12] = cytotoxicity in HEK-293T cells, dose response, cytotoxicity control for TCR NF-kB inhibitor project, luminescence, T-cell screen hits (AID 489026); format: functional, cell-based;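 also: cells exposed to compound about 14 hours before the viability readout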
H4 = experiment: Inhibitors of Prion Protein 5' UTR mRNA Measured in Cell-Based System Using Plate Reader - 2078-01_Inhibitor_Dose_DryPowder_Activity. [Related pubchem assays (depositor defined):AID488894]; format: functional; settings: Homo sapiens

Row | Compound | EC50 [1] | EC50 [2] | EC50 [3] | EC50 [4] | IC50 (Vero [6]) | also measured
1 | O=C(Nc1nnc(SCc2ccc(Cl)cc2)s1)c1cnccn1 | > 180 µM (inactive) | > 160 µM (inactive) | 0.57 µM (active) | 24.4 µM (active) | – | –
2 | O=C(Cc1c[nH]c2ccccc12)Nc1nnc(C2CC2)s1 | – | – | – | – | 16.6 µM (active) | CC50 [5]: 21.6 µM (active); IC50 (cells): 39.1 µM (active)
3 | CCCOc1ccc(C(=O)NNC(=S)NC(C)=O)cc1 | > 180 µM (inactive) | > 160 µM (inactive) | 0.372 µM (active) | > 160 µM (inactive) | 23.6 µM (active) | EC50 [7]: 14.2 µM (active); CC50 (Vero [8]): > 25 µM (active); IC50 [9]: > 20 µM (inactive); EC50 [10]: 9.77 µM (active); EC50 [11]: 14.2 µM (active)
4 | C=CCn1c(SCc2c(C)noc2C)nc2ccccc2c1=O | – | – | – | – | – | IC50 [12]: > 80 µM (inactive); AC50 (H4): 0.574 µM (active)
5 | O=c1oc(C2(O)CCCCC2)cc2ccc(-c3ccc4[nH]ccc4c3)cc12 | – | – | – | – | 1.11 µM (active) | –
